Laboratory results: ChEMBL document CHEMBL2176976, “Ethylenediamine diacetate (EDDA) mediated synthesis of aurones under ultrasound: their evaluation as inhibitors of SIRT1” (Bioorg Med Chem Lett, 2012)

Columns and labels:
[1] = molecular target: T1, NAD-dependent protein deacetylase sirtuin-1 (Homo sapiens) (UniProt Q96EB6); test: Inhibition of full length recombinant human SIRT1 expressed in Escherichia coli BL21 (DE3) PLysS using Fluor-de-Lys as substrate at 10 uM by fluorimetric assay
T1 sequence (whole entry): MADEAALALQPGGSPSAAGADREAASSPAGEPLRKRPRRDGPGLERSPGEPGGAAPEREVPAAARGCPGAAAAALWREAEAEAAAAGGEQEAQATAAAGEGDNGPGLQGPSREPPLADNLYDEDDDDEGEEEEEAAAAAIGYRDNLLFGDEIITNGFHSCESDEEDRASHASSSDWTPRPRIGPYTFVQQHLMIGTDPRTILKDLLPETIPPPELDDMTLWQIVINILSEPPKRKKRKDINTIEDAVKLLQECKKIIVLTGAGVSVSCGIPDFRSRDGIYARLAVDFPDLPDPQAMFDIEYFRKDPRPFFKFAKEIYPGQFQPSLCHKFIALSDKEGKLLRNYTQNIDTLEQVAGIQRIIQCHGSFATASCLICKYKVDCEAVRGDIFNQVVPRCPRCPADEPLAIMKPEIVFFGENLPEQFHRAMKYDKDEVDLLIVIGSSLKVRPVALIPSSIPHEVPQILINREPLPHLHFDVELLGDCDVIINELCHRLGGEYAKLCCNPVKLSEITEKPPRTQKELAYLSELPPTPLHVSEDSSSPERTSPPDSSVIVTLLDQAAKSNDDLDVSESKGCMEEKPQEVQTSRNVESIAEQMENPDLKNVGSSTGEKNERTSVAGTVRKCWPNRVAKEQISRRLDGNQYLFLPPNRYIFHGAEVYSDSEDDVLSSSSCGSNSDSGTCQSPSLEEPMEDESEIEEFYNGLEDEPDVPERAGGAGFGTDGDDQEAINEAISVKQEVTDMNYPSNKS

[2] = system: MDA-MB-231; test: Cytotoxicity against human MDA-MB-231 cells assessed as growth inhibition at 10 uM after 24 hrs by MTT assay (reference value: 0.23 %); assay type: functional; conditions: MDA-MB-231, 24 h, read-out: GI
[3] = system: MCF7; test: Cytotoxicity against human MCF7 cells assessed as growth inhibition at 10 uM after 24 hrs by MTT assay (reference value: 0.15 %); assay type: functional; conditions: MCF7, 24 h, read-out: GI
[4] = molecular target: T2, NAD-dependent protein deacetylase sirtuin-2 (Homo sapiens, UniProt Q8IXJ6); test: Inhibition of human SIRT2
T2 sequence (Q8IXJ6 whole entry): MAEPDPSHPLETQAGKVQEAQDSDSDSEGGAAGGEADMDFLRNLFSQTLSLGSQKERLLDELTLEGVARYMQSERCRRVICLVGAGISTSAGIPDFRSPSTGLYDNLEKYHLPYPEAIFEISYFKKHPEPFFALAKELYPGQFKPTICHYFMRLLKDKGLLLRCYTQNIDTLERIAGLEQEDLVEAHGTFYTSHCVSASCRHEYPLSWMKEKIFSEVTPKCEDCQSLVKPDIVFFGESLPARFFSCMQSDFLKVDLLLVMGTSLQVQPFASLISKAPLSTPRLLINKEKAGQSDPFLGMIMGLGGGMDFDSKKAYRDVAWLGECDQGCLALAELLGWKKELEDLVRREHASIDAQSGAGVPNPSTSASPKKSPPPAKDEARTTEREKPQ

COc1ccc(/C=C2\Oc3ccccc3C2=O)cc1 [4'-METHOXY-AURONE]
inhibition [1]: 32.5%
inhibition of growth at 10 µM [2]: 18.1%
inhibition of growth at 10 µM [3]: 29.6%

O=C1/C(=C/c2ccc(Br)cc2)Oc2ccccc21
inhibition [1]: 71%
inhibition of growth at 10 µM [2]: 30.8%
inhibition of growth at 10 µM [3]: 34.5%

O=C1NC(=S)NC(=O)C1=Cc1cccc2ccccc12
IC50 [4]: 10 µM

O=C1/C(=C/c2ccc(F)cc2)Oc2ccccc21
inhibition [1]: 50.5%
inhibition of growth at 10 µM [2]: 16.5%
inhibition of growth at 10 µM [3]: 20.1%

Cc1ccc(C(=O)Nc2ccc(S(=O)(=O)O)c3cc(S(=O)(=O)O)cc(S(=O)(=O)O)c23)cc1NC(=O)c1cccc(NC(=O)Nc2cccc(C(=O)Nc3cc(C(=O)Nc4ccc(S(=O)(=O)O)c5cc(S(=O)(=O)O)cc(S(=O)(=O)O)c45)ccc3C)c2)c1 [SURAMIN]
inhibition of growth at 10 µM [2]: 26%
inhibition of growth at 10 µM [3]: 32%
